pEC50: −log10 of the molar value. Read-outs that look alike come from different tables or passages of the source.
Assays:
Format in all cases: biochemical
[1] = biological target: T1, JAK1 (aa 850-1154, catalytic domain, GST-tag) (Homo sapiens, UniProt P23458); experiment: JAK kinase assay (HTRF, phosphorylation of TK substrate-biotin), JAK1; conditions: ATP at Km (7 μM)
T1 construct: JAK1 (aa 850-1154) and TYK2 (aa 871-1187) are expressed with an N-terminally fused GST-tag; GST (N); purchased Carna Biosciences, Inc; host or cells: baculovirus expression system
T1 sequence (P23458 850-1154): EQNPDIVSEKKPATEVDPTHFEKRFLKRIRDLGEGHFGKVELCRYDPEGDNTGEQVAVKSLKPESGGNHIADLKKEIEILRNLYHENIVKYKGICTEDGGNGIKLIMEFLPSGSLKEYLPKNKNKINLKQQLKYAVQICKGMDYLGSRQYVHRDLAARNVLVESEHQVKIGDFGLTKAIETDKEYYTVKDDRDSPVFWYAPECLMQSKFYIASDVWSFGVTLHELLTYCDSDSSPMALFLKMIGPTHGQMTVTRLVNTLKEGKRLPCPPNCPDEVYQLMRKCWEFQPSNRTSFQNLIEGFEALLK
How it was run: (§1)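 Per reaction, 5 ng JAK1, 0.1 ng JAK2, 0.3 ng JAK3 or 0.8 ng TYK2 (baculovirus-expressed catalytic domains) acted on 1 μM TK substrate-biotin at Km ATP for 20-30 min, RT. Phosphorylation measured by HTRF.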

[2] = biological target: T2, JAK2 (catalytic domain, His-tag) (Homo sapiens, UniProt O60674); experiment: JAK kinase assay (HTRF, phosphorylation of TK substrate-biotin), JAK2; conditions: ATP at Km (4 μM)
T2 construct: All four purified enzymes contain only the catalytic domain; His (N); purchased Carna Biosciences, Inc; host or cells: baculovirus expression system
T2 sequence (O60674 849-1124 limits assumed): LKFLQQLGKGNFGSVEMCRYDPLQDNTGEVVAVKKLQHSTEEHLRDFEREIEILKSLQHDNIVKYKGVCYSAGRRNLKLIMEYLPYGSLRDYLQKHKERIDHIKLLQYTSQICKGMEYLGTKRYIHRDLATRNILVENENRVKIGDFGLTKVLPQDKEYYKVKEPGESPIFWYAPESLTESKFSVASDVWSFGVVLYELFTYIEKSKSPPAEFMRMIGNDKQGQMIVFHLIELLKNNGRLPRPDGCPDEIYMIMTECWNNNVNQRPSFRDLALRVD
How it was run: as §1

[3] = biological target: T3, JAK3 (catalytic domain, His-tag) (Homo sapiens, UniProt P52333); experiment: JAK kinase assay (HTRF, phosphorylation of TK substrate-biotin), JAK3; conditions: ATP at Km (2 μM)
T3 construct: All four purified enzymes contain only the catalytic domain; His (N); purchased Carna Biosciences, Inc; host or cells: baculovirus expression system
T3 sequence (P52333 822-1111 limits assumed): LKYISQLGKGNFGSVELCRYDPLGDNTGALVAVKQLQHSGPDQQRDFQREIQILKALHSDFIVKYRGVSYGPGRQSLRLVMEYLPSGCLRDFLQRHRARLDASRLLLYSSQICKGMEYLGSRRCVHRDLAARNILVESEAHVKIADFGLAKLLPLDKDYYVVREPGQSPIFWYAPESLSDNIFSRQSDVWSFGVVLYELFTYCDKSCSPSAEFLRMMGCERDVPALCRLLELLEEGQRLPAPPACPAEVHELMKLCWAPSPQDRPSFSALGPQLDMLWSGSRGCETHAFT
How it was run: as §1

[4] = biological target: T4, TYK2 (aa 871-1187, catalytic domain, GST-tag) (Homo sapiens, UniProt P29597); experiment: JAK kinase assay (HTRF, phosphorylation of TK substrate-biotin), TYK2; conditions: ATP at Km (13 μM)
T4 construct: JAK1 (aa 850-1154) and TYK2 (aa 871-1187) are expressed with an N-terminally fused GST-tag; GST (N); purchased Carna Biosciences, Inc; host or cells: baculovirus expression system
T4 sequence (P29597 871-1187): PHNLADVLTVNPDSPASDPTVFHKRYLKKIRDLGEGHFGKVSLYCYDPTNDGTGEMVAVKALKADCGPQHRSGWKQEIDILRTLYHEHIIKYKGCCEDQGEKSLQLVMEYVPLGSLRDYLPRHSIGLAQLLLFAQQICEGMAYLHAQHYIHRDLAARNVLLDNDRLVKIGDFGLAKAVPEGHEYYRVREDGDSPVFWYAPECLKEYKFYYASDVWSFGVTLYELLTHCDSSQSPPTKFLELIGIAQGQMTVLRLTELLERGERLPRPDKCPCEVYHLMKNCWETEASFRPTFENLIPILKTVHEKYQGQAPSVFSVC
How it was run: as §1

[5] = read-out: JAK1 kinase inhibitory activity (EC50 indicator)
[6] = read-out: JAK2 kinase inhibitory activity (EC50 indicator)
[7] = read-out: JAK3 kinase inhibitory activity (EC50 indicator)
[8] = read-out: TYK2 kinase inhibitory activity (EC50 indicator)
[9] = HTRF assay, read-out: JAK1 kinase inhibitory activity (EC50 indicator)
[10] = HTRF assay, read-out: JAK2 kinase inhibitory activity (EC50 indicator)
[11] = HTRF assay, read-out: JAK3 kinase inhibitory activity (EC50 indicator)
[12] = HTRF assay, read-out: TYK2 kinase inhibitory activity (EC50 indicator)

Structure (SMILES)	pEC50 [1, 5]	pEC50 [2, 6]	pEC50 [3, 7]	pEC50 [4, 8]	pEC50 [1, 9]	pEC50 [2, 10]	pEC50 [3, 11]	pEC50 [4, 12]	further results
Cn1cc(S(N)(=O)=O)cc1C(=O)N1C2CCC1CN(c1ncnc3[nH]ccc13)C2 [Example 142, 1-Methyl-5-[3-(7H-pyrrolo[2,3-d]pyrimidin-4-yl)-3,8-diaza-bicyclo[3.2.1]octane-8-carbonyl]-1H-pyrrole-3-sulfonic acid amide]	> 7.00	> 7.00	> 7.00	6.30 to 7.00					
O=C(c1csc2ccccc12)N1CCN(c2ncnc3[nH]ccc23)CC12CC2 [Example 214, Benzo[b]thiophen-3-yl-[7-(7H-pyrrolo[2,3-d]pyrimidin-4-yl)-4,7-diaza-spiro[2.5]oct-4-yl]-methanone]					> 7.00	> 7.00	> 7.00	> 7.00	
Cc1ccc(C(=O)N2C[C@@H]3C[C@H]2CN3c2ncnc3[nH]ccc23)s1 [Example 265, (5-Methyl-thiophen-2-yl)-[5-(7H-pyrrolo[2,3-d]pyrimidin-4-yl)-2,5-diaza-bicyclo[2.2.1]hept-2-yl]-methanone]					< 6.30	< 6.30	< 6.30	< 6.30	
Cc1c[nH]c2ncnc(N3CCN(C(=O)c4cccc(C#N)c4)C4(CC4)C3)c12 [Example 119, 3-[7-(5-Methyl-7H-pyrrolo[2,3-d]pyrimidin-4-yl)-4,7-diaza-spiro[2.5]octane-4-carbonyl]-benzonitrile]	< 6.30	< 6.30	< 6.30	< 6.30					
N#CCc1cccc(CC(=O)N2CCN(c3ncnc4[nH]cc(Cl)c34)CC23CC3)c1 [Example 318, (3-{2-[7-(5-Chloro-7H-pyrrolo[2,3-d]pyrimidin-4-yl)-4,7-diaza-spiro[2.5]oct-4-yl]-2-oxo-ethyl}-phenyl)-acetonitrile]					< 6.30	< 6.30	< 6.30	< 6.30	
Cc1cc2[nH]c(C(=O)N3[C@@H]4CC[C@H]3CN(c3ncnc5[nH]ccc35)C4)cc2cc1F [Example 110, (5-Fluoro-6-methyl-1H-indol-2-yl)-[3-(7H-pyrrolo[2,3-d]pyrimidin-4-yl)-3,8-diaza-bicyclo[3.2.1]oct-8-yl]-methanone]	> 7.00	6.30 to 7.00	6.30 to 7.00	< 6.30					
O=C(Cc1ccncc1)N1CCN(c2ncnc3[nH]ccc23)CC12CC2 [Example 21, 2-Pyridin-4-yl-1-[7-(7H-pyrrolo[2,3-d]pyrimidin-4-yl)-4,7-diazaspiro[2.5]oct-4-yl]ethanone]	> 7.00	> 7.00	6.30 to 7.00	< 6.30					
O=C(Cc1cc(Br)cs1)N1CCN(c2ncnc3[nH]ccc23)CC12CC2 [Example 387, 2-(4-Bromo-thiophen-2-yl)-1-[7-(7H-pyrrolo[2,3-d]pyrimidin-4-yl)-4,7-diaza-spiro[2.5]oct-4-yl]-ethanone]					> 7.00	> 7.00	> 7.00	6.30 to 7.00	
O=C(c1cc2c(F)cccc2[nH]1)N1CCN(c2ncnc3[nH]ccc23)CC12CC2 [Example 368, (4-Fluoro-1H-indol-2-yl)-[7-(7H-pyrrolo[2,3-d]pyrimidin-4-yl)-4,7-diaza-spiro[2.5]oct-4-yl]-methanone]					> 7.00	> 7.00	6.30 to 7.00	6.30 to 7.00	
CS(=O)(=O)c1cc(C(=O)N2CCN(c3ncnc4[nH]ccc34)CC23CC3)ccc1F [Example 366, (4-Fluoro-3-methanesulfonyl-phenyl)-[7-(7H-pyrrolo[2,3-d]pyrimidin-4-yl)-4,7-diaza-spiro[2.5]oct-4-yl]-methanone]					> 7.00	> 7.00	6.30 to 7.00	< 6.30	
CS(=O)(=O)c1cccc(CC(=O)N2CCN(c3ncnc4[nH]ccc34)CC23CC3)c1 [Example 101, 2-(3-Methanesulfonyl-phenyl)-1-[7-(7H-pyrrolo[2,3-d]pyrimidin-4-yl)-4,7-diaza-spiro[2.5]oct-4-yl]-ethanone]	6.30 to 7.00	6.30 to 7.00	6.30 to 7.00	< 6.30					
NS(=O)(=O)c1cc(OCC(=O)N2CCN(c3ncnc4[nH]ccc34)CC23CC3)ccc1Cl [Example 102, 2-Chloro-5-{2-oxo-2-[7-(7H-pyrrolo[2,3-d]pyrimidin-4-yl)-4,7-diaza-spiro[2.5]oct-4-yl]-ethoxy}-benzenesulfonamide]	> 7.00	> 7.00	> 7.00	6.30 to 7.00					
CCCCNC(=O)N1CCN(c2ncnc3[nH]ccc23)CC12CC2 [Example 444, 7-(7H-Pyrrolo[2,3-d]pyrimidin-4-yl)-4,7-diaza-spiro[2.5]octane-4-carboxylic acid butylamide]									pEC50 ([1]; HTRF assay, read-out: JAK1 kinase inhibitory activity (EC50)): > 7.00; pEC50 ([2]; HTRF assay, read-out: JAK2 kinase inhibitory activity (EC50)): > 7.00; pEC50 ([3]; HTRF assay, read-out: JAK3 kinase inhibitory activity (EC50)): 6.30 to 7.00; pEC50 ([4]; HTRF assay, read-out: TYK2 kinase inhibitory activity (EC50)): < 6.30
O=C(CCc1ccccc1)N1CCN(c2ncnc3[nH]ccc23)CC12CC2 [Example 153, 3-Phenyl-1-[7-(7H-pyrrolo[2,3-d]pyrimidin-4-yl)-4,7-diaza-spiro[2.5]oct-4-yl]-propan-1-one]	> 7.00	> 7.00	6.30 to 7.00	< 6.30					
Cn1c(C(=O)N2C3CCC2CN(c2ncnc4[nH]ccc24)C3)ccc1S(N)(=O)=O [Example 141, 1-Methyl-5-[3-(7H-pyrrolo[2,3-d]pyrimidin-4-yl)-3,8-diaza-bicyclo[3.2.1]octane-8-carbonyl]-1H-pyrrole-2-sulfonic acid amide]	> 7.00	> 7.00	> 7.00	< 6.30					
COc1cnc2[nH]ccc2c1N1CCN(C(=O)CCCC#N)C2(CC2)C1 [Example 293, 5-[7-(5-Methoxy-1H-pyrrolo[2,3-b]pyridin-4-yl)-4,7-diaza-spiro[2.5]oct-4-yl]-5-oxo-pentanenitrile]					> 7.00	> 7.00	> 7.00	6.30 to 7.00	

Further lines, with some results ahead:

pEC50 [1, 5]	pEC50 [2, 6]	pEC50 [3, 7]	pEC50 [4, 8]	pEC50 [1, 9]	pEC50 [2, 10]	pEC50 [3, 11]	pEC50 [4, 12]	Structure (SMILES)	further results
				> 7.00	> 7.00	> 7.00	> 7.00	Cc1cc(S(N)(=O)=O)ccc1OCC(=O)N1CCN(c2ncnc3[nH]ccc23)CC12CC2 [Example 411, 3-Methyl-4-{2-oxo-2-[7-(7H-pyrrolo[2,3-d]pyrimidin-4-yl)-4,7-diaza-spiro[2.5]oct-4-yl]-ethoxy}-benzenesulfonamide]	
				> 7.00	> 7.00	> 7.00	6.30 to 7.00	NS(=O)(=O)Cc1ccc(C(=O)N2CCN(c3ncnc4[nH]ccc34)CC23CC3)cc1 [Example 409, {4-[7-(7H-Pyrrolo[2,3-d]pyrimidin-4-yl)-4,7-diaza-spiro[2.5]octane-4-carbonyl]-phenyl}-methanesulfonamide]	
				> 7.00	> 7.00	> 7.00	< 6.30	Cc1cc(C(=O)N2[C@@H]3CC[C@H]2CN(c2ncnc4[nH]ccc24)C3)ccc1S(N)(=O)=O [Example 392, 2-Methyl-4-[3-(7H-pyrrolo[2,3-d]pyrimidin-4-yl)-3,8-diaza-bicyclo[3.2.1]octane-8-carbonyl]-benzenesulfonamide]	
				> 7.00	> 7.00	> 7.00	< 6.30	Cc1ccc(S(N)(=O)=O)cc1C(=O)N1CCN(c2ncnc3[nH]ccc23)CC12CC2 [Example 388, 4-Methyl-3-[7-(7H-pyrrolo[2,3-d]pyrimidin-4-yl)-4,7-diaza-spiro[2.5]octane-4-carbonyl]-benzenesulfonamide]	
				> 7.00	> 7.00	> 7.00	> 7.00	NS(=O)(=O)c1ccc(C(=O)NCC(=O)N2CCN(c3ncnc4[nH]ccc34)CC23CC3)cc1 [Example 410, N-{2-Oxo-2-[7-(7H-pyrrolo[2,3-d]pyrimidin-4-yl)-4,7-diaza-spiro[2.5]oct-4-yl]-ethyl}-4-sulfamoyl-benzamide]	
				> 7.00	> 7.00	6.30 to 7.00	6.30 to 7.00	O=C(c1ccc(S(=O)(=O)NCCc2cccs2)cc1)N1CCN(c2ncnc3[nH]ccc23)CC12CC2 [Example 397, 4-[7-(7H-Pyrrolo[2,3-d]pyrimidin-4-yl)-4,7-diaza-spiro[2.5]octane-4-carbonyl]-N-(2-thiophen-2-yl-ethyl)-benzenesulfonamide]	

Source: patent US9346809B2 (LEO PHARMA A/S, priority 2009, dated 2016)
